Laboratory results taken from patent US10004716B2, “Therapeutic/ preventive agent containing coumarin derivative as active ingredient” (NIPPON ZOKI PHARMACEUTICAL CO., LTD., priority 2014, dated 2018).

Experiments:
[1] = test system: IL-1β gene expression; assay: Suppression of LPS-induced gene expression of inflammation-related factors in THP-1 cells (real time PCR): IL-1β; format: cell-based, human; conditions: PMA-differentiated THP-1 cells; test substance 12.5 μmol/mL 2 hours, then LPS 10 mg/mL 3 hours; n = 3
Procedure: (§1) THP-1 cells were subjected to induction of differentiation for 72 hours with PMA (phorbol 12-myristate 13-acetate; 100 nM/L) and then the THP-1 cells (5×10^5 cells/mL) were incubated for 24 hours in a RPMI 1640+10% FCS culture solution in a 24-well plate. After that, a test substance was added so as to make the final concentration 12.5 μmol/mL followed by conducting the preincubation for 2 hours, a lipopolysaccharide (LPS) was then added thereto so as to make the final concentration 10 mg/mL and, after 3 hours, the cells were recovered.
(§2) QIAzol Lysis Reagent (QIAGEN) (1 mL) was added to the above to suspend, 200 μL of chloroform was added thereto followed by mixing and centrifugation (at 4° C. and 1500 rpm) was conducted whereby the supernatant liquid was recovered. Total RNA was extracted and purified by treating the supernatant liquid with QIACube (QIAGEN) and RNeasy Micro Kit (QIAGEN). cDNA was prepared from the total RNA using Omniscript RT kit (QIAGEN) and Oligo(dT)12-18 Primer (Invitrogen).
(§3) Gene expression level of the inflammation-related factors [IL-1β, IL-6 and monocyte chemotactic protein (MCP)-1] was measured by a conventional real time PCR method using a fluorescent dye SYBR GREEN I (Roche Diagnostics) by Light Cycler LC 480 (the same) using cDNA synthesized from the total RNA extracted in the above (2). A calibration curve was prepared by diluting the PCR product quantified by PicoGreen dsDNA Quantitation kit (Molecular probes) (a DNA quantitation kit) to an extent of 10^2˜10^7 copies/μL. From each of the resulting quantified values, copy numbers per 10000 copies of GAPDH gene being an internal standard were calculated.

[2] = test system: IL-6 gene expression; assay: Suppression of LPS-induced gene expression of inflammation-related factors in THP-1 cells (real time PCR): IL-6; format: cell-based, human; conditions: PMA-differentiated THP-1 cells; test substance 12.5 μmol/mL 2 hours, then LPS 10 mg/mL 3 hours; n = 3
Procedure: as §1, §2, §3

[3] = test system: monocyte chemotactic protein (MCP)-1 gene expression; assay: Suppression of LPS-induced gene expression of inflammation-related factors in THP-1 cells (real time PCR): MCP-1; format: cell-based, human; conditions: PMA-differentiated THP-1 cells; test substance 12.5 μmol/mL 2 hours, then LPS 10 mg/mL 3 hours; n = 3
Procedure: as §1, §2, §3

[4] = test system: rats suffering from degenerative intervertebral disk induced by nicotine; assay: 50% reaction threshold value to mechanical stimulation (von Frey test) in rats with degenerative intervertebral disk induced by nicotine; format: in vivo; conditions: SD male rats, after 41 days from exposure to nicotine, 1 hour after administration; per os once daily; n = 8; normal control 15.0, diseased control 4.6
Procedure: (§4) After 16 days from the purchase, SD male rats were organized into normal control group and nicotine group in terms of body weight, 50% reaction threshold value (measuring method will be mentioned later) and duration of walking time and, after 17 days from the purchase, exposure to nicotine was started for a nicotine group. Nicotine was prepared into 344.8 mg/mL using a physiological saline solution, filled into an osmotic pressure pump and retained under the skin of waist of rats. After 21 days from the retaining, an osmotic pressure pump into which a freshly-prepared nicotine solution was filled was retained under the skin of rats of five groups except the normal control group. Nicotine was prepared into […] using a physiological saline solution, filled into an osmotic pressure pump and retained under the skin of waist of the SD male rats.
(§5) After 13 days from exposure to nicotine, measurement of 50% reaction threshold value, duration of walking time and body weight were measured and a group organization was done into 6 groups of normal control group, diseased control group, compound 57-administered group, compound 58-administered group, compound 60-administered group and compound 68-administered group.
(§6) A test substance was suspended using 0.5 w/v % CMC and, together with stirring, 10 mL/kg of the suspension was repeatedly administered per os once daily after 14 to 52 or 53 days from the initiation of exposure to nicotine using an oral sonde for rats. To the normal control group and the diseased control group, 0.5 w/v % CMC was repeatedly administered per os in the same administration schedule and administration method.
A 50% reaction threshold value to mechanical stimulation was measured before the exposure to nicotine and after 41 days from the exposure to nicotine. The six groups of the rats mentioned in the above (2) were placed in a transparent acrylic gauge where the bottom is a metal wire, acclimated for about 3 minutes and a 50% reaction threshold value to mechanical stimulation was measured after 1 hour from the administration of a testing drug.
The measurement was conducted using a von Frey filament (manufactured by North Coast Medical Inc.) in accordance with a method of Chaplan, et al. (Journal of Neuroscience Methods, vol. 53, no. 1, pages 55 to 63, 1994) and a method of Dixon, et al. ([…] of Pharmacology and Toxicology, vol. 20, pages 441 to 462, 1980). […] A 50% reaction threshold value to mechanical stimulation was measured using the reaction for the stimulation for six times in total and a mean value in each of the groups was calculated. […]

[5] = test system: rats suffering from degenerative intervertebral disk induced by nicotine; assay: Duration of walking time (rotor rod) in rats with degenerative intervertebral disk induced by nicotine; format: in vivo; conditions: SD male rats, after 48 days from initiation of exposure to nicotine, 300 seconds maximum, per os once daily, n = 8, normal control 274.1, diseased control 147.7
Procedure: as §4, §5, §6
Before the exposure to nicotine and after 48 days from the initiation of the exposure to nicotine, duration of waling time of rats was measured using a rotor rod for both rats and mice. A rotating speed was adjusted in such a manner that, when rotation was started in constant acceleration from the state where a rotor stopped, it reached 15 rotations per minute after 300 seconds. A rat was placed on a rotor which was in a stopped state, then the rotor was rotated, the time until the rat dropped was measured (300 seconds in maximum) and a mean value of three runs was determined.

| SMILES | Copy Numbers per 10000 Copies of GAPDH IL-1β [1] | Copy Numbers per 10000 Copies of GAPDH IL-6 [2] | Copy Numbers per 10000 Copies of GAPDH MCP-1 [3] | Threshold Value for Pain [4] [g] | Duration of Walking Time [5] [s] |
| --- | --- | --- | --- | --- | --- |
| O=c1oc2c(OS(=O)(=O)c3ccc(C(F)(F)F)cc3)cccc2cc1NS(=O)(=O)c1cccc(Br)c1 [Compound 58, 3-[(3-Bromophenyl)sulfonylamino]-2-oxochromen-8-yl 4-(trifluoromethyl)benzenesulfonate] | 31904.4 copies per 10000 copies of GAP | 93.2 copies per 10000 copies of GAP | 1040.9 copies per 10000 copies of GAP | 6.7 | 210.9 |
| O=c1oc2c(OS(=O)(=O)c3cccc(Br)c3)cccc2cc1NS(=O)(=O)c1cccc(C(F)(F)F)c1 [Compound 60, 2-Oxo-3-[[3-(trifluoromethyl)phenyl]sulfonylamino]-chromen-8-yl 3-bromobenzenesulfonate] | 29872.3 copies per 10000 copies of GAP | 275.2 copies per 10000 copies of GAP | 1787.5 copies per 10000 copies of GAP | 9.6 | 208.4 |
| O=c1oc2c(OS(=O)(=O)c3cccc(C(F)(F)F)c3)cccc2cc1NS(=O)(=O)c1ccc(C(F)(F)F)cc1 [Compound 68, 2-Oxo-3-[[4-(trifluoromethyl)phenyl]sulfonylamino]-chromen-8-yl 3-(trifluoromethyl)benzenesulfonate] | 24423.1 copies per 10000 copies of GAP | 95.7 copies per 10000 copies of GAP | 823.5 copies per 10000 copies of GAP | 7.6 | 189.2 |
| O=c1oc2c(OS(=O)(=O)c3ccc(C(F)(F)F)cc3)cccc2cc1NS(=O)(=O)c1cccc(C(F)(F)F)c1 [Compound 57, 2-Oxo-3-[[3-(trifluoromethyl)phenyl]sulfonylamino]-chromen-8-yl 4-(trifluoromethyl)benzenesulfonate] | 30318.3 copies per 10000 copies of GAP | 49.0 copies per 10000 copies of GAP | 1001.3 copies per 10000 copies of GAP | 7.5 | 187.3 |
